{"source": "patent US8188077B2", "about": "“Apoptosis-inducing agents for the treatment of cancer and immune and autoimmune diseases” (Abbott Laboratories, priority 2010, dated 2012)"}
{"molecular_target": "T1, Bcl-2 protein (Homo sapiens, UniProt P10415, DELINS35-91DVEENRTEAPEGTESE, form not given)", "T1 construct": "fused on or other part: Bcl-xL (Q07817) residues 29-44 stand in place of Bcl-2's own unstructured loop 35-91; The C-terminal membrane anchor (208-239) is absent", "T1 sequence (P10415 with tags, fused parts or gaps with the stated changes)": "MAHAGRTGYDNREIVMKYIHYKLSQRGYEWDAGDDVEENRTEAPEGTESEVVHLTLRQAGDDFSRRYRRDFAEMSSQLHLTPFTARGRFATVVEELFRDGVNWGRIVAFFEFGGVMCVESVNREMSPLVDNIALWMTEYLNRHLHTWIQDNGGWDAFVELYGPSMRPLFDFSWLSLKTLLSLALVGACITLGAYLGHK", "test": "Bcl-2 fluorescence polarization assay (FPA) binding", "conditions": "10 nM Bcl-2 protein, 1 nM fluorescein-labeled BAX peptide, room temperature, read-out: Bcl-2 FPA 11pt Ki", "protocol": "Assays for the inhibition of Bcl-2 were performed in 96-well microtiter plates. Compounds of the instant invention were diluted in DMSO to concentrations between […] and 10 pM and introduced into each well of the plate. A mixture totaling 125 µL per well of assay buffer (20 mM phosphate buffer (pH 7.4), 1 mM EDTA, 0.05% PF-68), 10 nM of Bcl-2 protein (prepared according to the procedure described in PNAS 2001, 98, 3012-3017), 1 nM fluorescein-labeled BAX peptide (prepared in-house), and the DMSO solution of the compound of the instant invention was shaken for 2 minutes and placed in a LJL Analyst (LJL Bio Systems, CA. Polarization was measured at room temperature using a continuous Fluorescein lamp (excitation 485 nm, emission 530 nm). Ki values were calculated using Microsoft Excel.", "units": {"Ki": "nM"}}
{"smiles": "O=C(NS(=O)(=O)c1ccc(NC2CCOCC2)c([N+](=O)[O-])c1)c1ccc(N2CC3CN(C(=O)C45CC6CC(CC(C6)C4)C5)CC32)cc1", "note": "[Example 44, 4-{1S,5S)-3-[adamantan-1-ylcarbonyl]-3,6-diazabicyclo[3.2.0]hept-6-yl}-N-{[3-nitro-4-(tetrahydro-2H-pyran-4-ylamino)phenyl]sulfonyl}benzamide]", "Ki": "> 6250"}
{"smiles": "C[C@@H]1[C@@H](N(CCCc2ccccc2)C2CCN(c3ccc(C(=O)NS(=O)(=O)c4ccc(NC5CCOCC5)c([N+](=O)[O-])c4)cc3)CC2)C[C@H]2C[C@@H]1C2(C)C", "note": "[Example 45, N-{[3-nitro-4-(tetrahydro-2H-pyran-4-ylamino)phenyl]sulfonyl}-4-(4-{(3-phenylpropyl)[(1S,2S,3S,5R)-2,6,6-trimethylbicyclo[3.1.1]hept-3-yl]amino}piperidin-1-yl)benzamide]", "Ki": 79}
{"smiles": "C[C@@H]1[C@@H](N(C(=O)CCc2ccccc2)C2CCN(c3ccc(C(=O)NS(=O)(=O)c4ccc(NCC5CCCCC5)c([N+](=O)[O-])c4)cc3)CC2)C[C@H]2C[C@@H]1C2(C)C", "note": "[Example 46, N-({4-[(cyclohexylmethyl)amino]-3-nitrophenyl}sulfonyl)-4-(4-{(3-phenylpropanoyl)[(1S,2S,3S,5R)-2,6,6-trimethylbicyclo[3.1.1]hept-3-yl]amino}piperidin-1-yl)benzamide]", "Ki": 33}
{"smiles": "O=C(NS(=O)(=O)c1ccc(NCC2CCCCC2)c([N+](=O)[O-])c1)c1ccc(N2CCN(CC34CC5CC(CC(C5)C3)C4)CC2)cc1", "note": "[Example 47, 4-{4-[adamantan-1-ylmethyl]piperazin-1-yl}-N-({4-[(cyclohexylmethyl)amino]-3-nitrophenyl}sulfonyl)benzamide]", "Ki": 66.9}
{"smiles": "O=C(NS(=O)(=O)c1ccc(NCC2CCCCC2)c([N+](=O)[O-])c1)c1ccc2cc(-c3ccc(O)c(C45CC6CC(CC(C6)C4)C5)c3)ccc2c1", "note": "[Example 48, 6-{3-[adamantan-1-yl]-4-hydroxyphenyl}-N-({4-[(cyclohexylmethyl)amino]-3-nitrophenyl}sulfonyl)-2-naphthamide]", "Ki": 1390}
{"smiles": "O=C(NS(=O)(=O)c1ccc(NCC2CCCCC2)c([N+](=O)[O-])c1)c1ccc(N2CCN(CC(=O)C34CC5CC(CC(C5)C3)C4)CC2)cc1", "note": "[Example 49, 4-(4-{2-[adamantan-1-yl]-2-oxoethyl}piperazin-1-yl)-N-({4-[(cyclohexylmethyl)amino]-3-nitrophenyl}sulfonyl)benzamide]", "Ki": 342}
{"smiles": "O=C(NS(=O)(=O)c1ccc(NC2CCOCC2)c([N+](=O)[O-])c1)c1ccc(NCC2C3CC4CC(C3)CC2C4)cc1", "note": "(stereo not drawn) [Example 50, 4-{[adamantan-2-ylmethyl]amino}-N-{[3-nitro-4-(tetrahydro-2H-pyran-4-ylamino)phenyl]sulfonyl}benzamide]", "Ki": 3560}
{"smiles": "O=C(NS(=O)(=O)c1ccc(NC2CCOCC2)c([N+](=O)[O-])c1)c1ccc(OCCC23CC4CC(CC(C4)C2)C3)cc1", "note": "[Example 51, 4-{2-[adamantan-1-yl]ethoxy}-N-{[3-nitro-4-(tetrahydro-2H-pyran-4-ylamino)phenyl]sulfonyl}benzamide]", "Ki": 1050}
{"smiles": "O=C(CCN(Cc1ccccc1)C(=O)CC12CC3CC(CC(C3)C1)C2)NS(=O)(=O)c1ccc(NCC2CCCCC2)c([N+](=O)[O-])c1", "note": "[Example 52, N^3-[adamantan-1-ylacetyl]-N^3-benzyl-N-({4-[(cyclohexylmethyl)amino]-3-nitrophenyl}sulfonyl)-beta-alaninamide]", "Ki": 1390}
{"smiles": "C[C@@H]1[C@@H](N2CCN(c3ccc(C(=O)NS(=O)(=O)c4ccc(NCC5CCCCC5)c([N+](=O)[O-])c4)cc3)CC2)C[C@H]2C[C@@H]1C2(C)C", "note": "[Example 53, N-({4-[(cyclohexylmethyl)amino]-3-nitrophenyl}sulfonyl)-4-{4-[(1S,2S,3S,5R)-2,6,6-trimethylbicyclo[3.1.1]hept-3-yl]piperazin-1-yl}benzamide]", "Ki": 845}
{"smiles": "O=C(NS(=O)(=O)c1ccc(NCC2CCCCC2)c([N+](=O)[O-])c1)c1ccc(N2CCN(C34CC5CC(CC(C5)C3)C4)CC2)cc1", "note": "[Example 54, 4-{4-[adamantan-1-yl]piperazin-1-yl}-N-({4-[(cyclohexylmethyl)amino]-3-nitrophenyl}sulfonyl)benzamide]", "Ki": "> 9730"}
{"smiles": "CC12CC3CC(C)(C1)CC(N1CCN(c4ccc(C(=O)NS(=O)(=O)c5ccc(NCC6CCCCC6)c([N+](=O)[O-])c5)cc4)CC1)(C3)C2", "note": "[Example 55, N-({4-[(cyclohexylmethyl)amino]-3-nitrophenyl}sulfonyl)-4-{4-[3,5-dimethyladamantan-1-yl]piperazin-1-yl}benzamide]", "Ki": 352}
{"smiles": "CC1(C)O[C@@H]2[C@@H](CO[C@@]3(COS(=O)(=O)NC(=O)c4ccc(N5CCN(Cc6ccccc6-c6ccc(Cl)cc6)CC5)cc4)OC(C)(C)O[C@@H]23)O1", "note": "[Example 56, [(3 aS,5aR,8aR,8bS)-2,2,7,7-tetramethyltetrahydro-3aH-bis[1,3]dioxolo[4,5-b:4′,5′-d]pyran-3a-yl]methyl (4-{4-[(4′-chlorobiphenyl-2-yl)methyl]piperazin-1-yl}benzoyl)sulfamate]", "Ki": "< 20"}
{"smiles": "CC1(C)[C@H]2CC[C@]1(CS(=O)(=O)NC(=O)c1ccc(N3CCN(Cc4ccccc4-c4ccc(Cl)cc4)CC3)cc1)C(=O)C2", "note": "[Example 57, 4-{4-[(4′-chlorobiphenyl-2-yl)methyl]piperazin-1-yl}-N-({[(1R,4S)-7,7-dimethyl-2-oxobicyclo[2.2.1]hept-1-yl]methyl}sulfonyl)benzamide]", "Ki": 134}
{"smiles": "O=C(NS(=O)(=O)c1ccc(NCC2CCCCC2)c([N+](=O)[O-])c1)c1ccc(N2CCN(CCC34CC5CC(CC(C5)C3)C4)CC2)cc1", "note": "[Example 58, 4-(4-{2-[adamantan-1-yl]ethyl}piperazin-1-yl)-N-({4-[(cyclohexylmethyl)amino]-3-nitrophenyl}sulfonyl)benzamide]", "Ki": "> 18700"}
{"smiles": "CC1(C)[C@@H]2CC[C@@]1(CS(=O)(=O)NC(=O)c1ccc(N3CCN(Cc4ccccc4-c4ccc(Cl)cc4)CC3)cc1)C(=O)C2", "note": "[Example 59, 4-{4-[(4′-chlorobiphenyl-2-yl)methyl]piperazin-1-yl}-N-({[(1S,4R)-7,7-dimethyl-2-oxobicyclo[2.2.1]hept-1-yl]methyl}sulfonyl)benzamide]", "Ki": 66.7}
{"smiles": "C[C@@H]1[C@@H](N(Cc2ccc(-c3ccc(C(=O)NS(=O)(=O)c4ccc(NCC5CCCCC5)c([N+](=O)[O-])c4)cc3)cc2)C(=O)CCc2ccccc2)C[C@H]2C[C@@H]1C2(C)C", "note": "[Example 60, N-({4-[(cyclohexylmethyl)amino]-3-nitrophenyl}sulfonyl)-4′-({(3-phenylpropanoyl)[(1S,2S,3S,5R)-2,6,6-trimethylbicyclo[3.1.1]hept-3-yl]amino}methyl)biphenyl-4-carboxamide]", "Ki": 504}
{"smiles": "CC1(C)[C@H]2C=C(c3ccccc3C=C3CCN(c4ccc(C(=O)NS(=O)(=O)c5ccc(NCC6CCOCC6)c([N+](=O)[O-])c5)cc4)CC3)[C@]1(C)CC2", "note": "[Example 61, N-({3-nitro-4-[(tetrahydro-2H-pyran-4-ylmethyl)amino]phenyl}sulfonyl)-4-(4-{2-[(1R,4R)-1,7,7-trimethylbicyclo[2.2.1]hept-2-en-2-yl]benzylidene}piperidin-1-yl)benzamide]", "Ki": "< 20"}
